Data taken from patent publication US9790202B2, “Anthranilamide derivatives as pesticides” (priority 2010, dated 2017).
Read-outs that look alike come from different tables or passages of the source.

Legend:
[1] = test system: caterpillars of the armyworm (Spodoptera frugiperda); experiment: Spodoptera frugiperda test (SPODFR spray treatment); type: in vivo; conditions: Spodoptera frugiperda, foliar, 168 h, read-out: efficacy in % (caterpillars killed)
Procedure: Spodoptera frugiperda Test (SPODFR Spray Treatment)
(§1) Solvent: 78.0 parts by weight of acetone 1.5 parts by weight of dimethylformamide
(§2) Emulsifier: 0.5 part by weight of alkylaryl polyglycol ether
(§3) To produce an appropriate active ingredient formulation, 1 part by weight of active ingredient is mixed with the stated amounts of solvent and emulsifier, and the concentrate is diluted with emulsifier-containing water to the desired concentration.
Leaf discs of maize (Zea mays) are sprayed with an active ingredient formulation of the desired concentration and, after drying, populated with caterpillars of the armyworm (Spodoptera frugiperda).
After 7 days, the efficacy in % is determined 100% means that all caterpillars have been killed; 0% means that no caterpillars have been killed.

[2] = log P determination by HPLC on reversed-phase columns (C 18), acidic range; type: physicochemical
Procedure: The log P values reported in the table above and in the Preparation Examples were determined in accordance with EEC Directive 79/831 Annex V.A8 by HPLC (High Performance Liquid Chromatography) on reversed-phase columns (C 18), with the following methods:
The LC-MS determination in the acidic range is effected at pH 2.7 using 0.1% aqueous formic acid and acetonitrile (contains 0.1% formic acid) as eluents, linear gradient from 10% acetonitrile to 95% acetonitrile
The calibration was effected with unbranched alkan-2-ones (having 3 to 16 carbon atoms) with known log P values (log P values determined on the basis of the retention times by linear interpolation between two successive alkanones).

[3] = test system: larvae of the mustard beetle (Phaedon cochleariae); experiment: Phaedon test (PHAECO spray treatment), Use Example 2; type: in vivo; conditions: foliar, 168 h, read-out: efficacy in % (beetle larvae killed)
Procedure: Phaedon Test (PHAECO Spray Treatment)
as §1, §2, §3
Leaf discs of Chinese cabbage (Brassica pekinensis) are sprayed with an active ingredient formulation of the desired concentration and, after drying, populated with larvae of the mustard beetle (Phaedon cochleariae).
After 7 days, the efficacy in % is determined 100% means that all beetle larvae have been killed; 0% means that no beetle larvae have been killed.

[4] = test system: green peach aphid (Myzus persicae); experiment: Myzus test (MYZUPE spray treatment); type: in vivo; conditions: foliar, 144 h, read-out: efficacy in % (aphids killed)
Procedure: Myzus Test (MYZUPE Spray Treatment)
Solvent: 78 parts by weight of acetone 1.5 parts by weight of dimethylformamide
as §2, §3
Leaf discs of Chinese cabbage (Brassica pekinensis) infested by all stages of the green peach aphid (Myzus persicae) are sprayed with an active ingredient formulation of the desired concentration.
After 6 days, the efficacy in % is determined 100% means that all aphids have been killed; 0% means that no aphids have been killed.

[5] = 100 g/ha, spray on maize leaf discs, after 7 days
[6] = reversed-phase C18 HPLC column, pH 2.7, HPLC reversed-phase C 18, pH 2.7, 0.1% aqueous formic acid / acetonitrile, read-out: LOGP (HCOOH)
[7] = 100 g/ha, spray on Chinese cabbage leaf discs, after 7 days
[8] = 100 g/ha, spray on Chinese cabbage leaf discs, after 6 days

chromatographic logP [2, 6]	SMILES	pest or weed control at 100 g/ha ([1]; in Zea mays)	chromatographic logP ([2]; pH 2.7, LOGP (HCOOH))	pest or weed control at 100 g/ha ([3]; in Brassica rapa)	pest or weed control at 100 g/ha [1, 5]	pest or weed control at 100 g/ha ([4]; in Brassica rapa)	also measured
–	CNC(=O)c1cc(C(C)=O)cc(C)c1NC(=O)c1cc(Cn2nnc(C(F)(F)F)n2)nn1-c1ncccc1Cl [Compound 8]	100%	2.53	–	–	–	–
–	CC(=O)c1cc(C)c(NC(=O)c2cc(Cn3nnc(C(F)(F)F)n3)nn2-c2ncccc2Cl)c(C(=O)NC(C)C)c1 [Compound 9]	100%	2.94	–	–	–	–
–	CC(=O)c1cc(C)c(NC(=O)c2cc(Cn3nnc(C(F)(F)F)n3)nn2-c2ncccc2Cl)c(C(=O)NC2CC2)c1 [Compound 10]	100%	2.73	–	–	–	–
–	CC(=O)c1cc(C)c(NC(=O)c2cc(Cn3nnc(C(F)(F)F)n3)nn2-c2ncccc2Cl)c(C(=O)NC(C)C2CC2)c1 (stereo not drawn) [Compound 11]	100%	3.23	100%	–	–	–
3.76	CC(=O)c1cc(C)c(NC(=O)c2cc(Cn3nnc(C(F)(F)F)n3)nn2-c2ccccc2Cl)c(C(=O)NC(C)(C)C)c1 [Compound 12]	–	–	–	100%	–	–
3.46	CC(=O)c1cc(C)c(NC(=O)c2cc(Cn3nnc(C(F)(F)F)n3)nn2-c2ccccc2Cl)c(C(=O)NC(C)C)c1 [Compound 13]	–	–	–	100%	–	pest or weed control at 100 g/ha [3, 7]: 100%
3.74	CC(=O)c1cc(C)c(NC(=O)c2cc(Cn3nnc(C(F)(F)F)n3)nn2-c2ccccc2Cl)c(C(=O)NC(C)C2CC2)c1 (stereo not drawn) [Compound 14]	–	–	–	100%	–	–
3.27	CCNC(=O)c1cc(C(C)=O)cc(C)c1NC(=O)c1cc(Cn2nnc(C(F)(F)F)n2)nn1-c1ccccc1Cl [Compound 16]	–	–	–	100%	–	–
–	CNC(=O)c1cc(C(N)=O)cc(C)c1NC(=O)c1cc(Cn2nnc(C(F)(F)F)n2)nn1-c1ncccc1Cl [Compound 17]	100%	1.94	100%	–	100%	–
–	Cc1cc(C(N)=O)cc(C(=O)NC(C)(C)C)c1NC(=O)c1cc(Cn2nnc(C(F)(F)F)n2)nn1-c1ncccc1Cl [Compound 18]	100%	2.5	100%	–	90%	–
–	Cc1cc(C(N)=O)cc(C(=O)NC(C)C)c1NC(=O)c1cc(Cn2nnc(C(F)(F)F)n2)nn1-c1ncccc1Cl [Compound 19]	100%	2.27	100%	–	–	–
–	Cc1cc(C(N)=O)cc(C(=O)NC2CC2)c1NC(=O)c1cc(Cn2nnc(C(F)(F)F)n2)nn1-c1ncccc1Cl [Compound 20]	100%	2.11	83%	–	–	–
–	Cc1cc(C(N)=O)cc(C(N)=O)c1NC(=O)c1cc(Cn2nnc(C(F)(F)F)n2)nn1-c1ncccc1Cl [Compound 21]	100%	1.83	100%	–	80%	–
–	Cc1cc(C(N)=S)cc(C(=O)NC(C)(C)C)c1NC(=O)c1cc(Cn2nnc(C(F)(F)F)n2)nn1-c1ncccc1Cl [Compound 22]	100%	2.89	100%	–	90%	–
2.65	CNC(=O)c1cc(C(N)=S)cc(C)c1NC(=O)c1cc(Cn2nnc(C(F)(F)F)n2)nn1-c1ccccc1Cl [Compound 24]	–	–	–	100%	–	pest or weed control at 100 g/ha [3, 7]: 100%; pest or weed control at 100 g/ha [4, 8]: 90%
–	CNC(=O)c1cc(C(N)=S)cc(C)c1NC(=O)c1cc(Cn2nnc(C(F)(F)C(F)(F)F)n2)nn1-c1ncccc1Cl [Compound 25]	100%	2.64	100%	–	100%	–
–	Cc1cc(C(N)=S)cc(C(=O)NC(C)(C)C)c1NC(=O)c1cc(Cn2nnc(C(F)(F)C(F)(F)F)n2)nn1-c1ncccc1Cl [Compound 26]	100%	3.26	100%	–	100%	–
3.85	COC(=O)c1cc(C)c(NC(=O)c2cc(Cn3nnc(C(F)(F)C(F)(F)F)n3)nn2-c2ncccc2Cl)c(C(=O)NC(C)(C)C)c1 [Compound 27]	–	–	–	100%	–	pest or weed control at 100 g/ha [3, 7]: 100%; pest or weed control at 100 g/ha [4, 8]: 90%
4.54	Cc1cc(C(=O)OCC2CC2)cc(C(=O)NC(C)(C)C)c1NC(=O)c1cc(Cn2nnc(C(F)(F)C(F)(F)F)n2)nn1-c1ncccc1Cl [Compound 28]	–	–	–	100%	–	–
4.62	Cc1cc(C(=O)OCC2CCC2)cc(C(=O)NC(C)(C)C)c1NC(=O)c1cc(Cn2nnc(C(F)(F)F)n2)nn1-c1ncccc1Cl [Compound 29]	–	–	–	100%	–	–
3.28	CNC(=O)c1cc(C(=O)OC)cc(C)c1NC(=O)c1cc(Cn2nnc(C(F)(F)F)n2)nn1-c1ccccc1Cl [Compound 30]	–	–	–	100%	–	–
4.37	Cc1cc(C(=O)OC2CCC2)cc(C(=O)NC(C)(C)C)c1NC(=O)c1cc(Cn2nnc(C(F)(F)F)n2)nn1-c1ncccc1Cl [Compound 31]	–	–	–	–	–	–
–	Cc1cc(C2OCCO2)cc(C(=O)NC(C)(C)C)c1NC(=O)c1cc(Cn2nnc(C(F)(F)F)n2)nn1-c1ncccc1Cl [Compound 33]	100%	3.22	–	–	100%	–
–	CNC(=O)c1cc(-n2ccc(C(F)(F)F)n2)cc(C)c1NC(=O)c1cc(Cn2nnc(C(F)(F)F)n2)nn1-c1ncccc1Cl [Compound 34]	100%	3.48	100%	–	–	–
3.86	CNC(=O)c1cc(-n2ccc(C(F)(F)F)n2)cc(C)c1NC(=O)c1cc(Cn2nnc(C(F)(F)C(F)(F)F)n2)nn1-c1ncccc1Cl [Compound 35]	–	–	–	100%	–	pest or weed control at 100 g/ha [3, 7]: 100%
–	CNC(=O)c1cc(-n2cncn2)cc(C)c1NC(=O)c1cc(Cn2nnc(C(F)(F)F)n2)nn1-c1ncccc1Cl [Compound 36]	100%	2.25	100%	–	100%	–
–	CNC(=O)c1cc(-n2cncn2)cc(C)c1NC(=O)c1cc(Cn2nnc(C(F)(F)C(F)(F)F)n2)nn1-c1ncccc1Cl [Compound 37]	100%	–	100%	–	80%	–
–	Cc1cc(C2OCCCO2)cc(C(=O)NC(C)(C)C)c1NC(=O)c1cc(Cn2nnc(C(F)(F)F)n2)nn1-c1ncccc1Cl [Compound 38]	100%	3.37	–	–	–	–
4.07	Cc1cc(C2OCC(C)(C)CO2)cc(C(=O)NC(C)(C)C)c1NC(=O)c1cc(Cn2nnc(C(F)(F)F)n2)nn1-c1ncccc1Cl [Compound 39]	–	–	–	100%	–	–
–	COC(=O)c1cc(C)c(N)c(C(=O)NC(C)(C)C)c1 [Example No. B, methyl 4-amino-3-(tert-butylcarbamoyl)-5-methylbenzoate]	–	–	–	–	–	chromatographic logP ([2]; reversed-phase C18 HPLC column, pH 2.7, Preparation Example, HPLC reversed-phase C 18, read-out: log P): 2.48
